Experimental findings from patent US20220251084A1, “PROGRANULIN MODULATORS AND METHODS OF USING THE SAME” (ARKUDA THERAPEUTICS, priority 2019, published 2022) are described below.

The EC50 is the concentration giving half of the maximal effect. Lower therefore signals greater potency.

Each structure is given as a SMILES string. Counter-ions that a name gives are not always drawn.

The first assay relates to progranulin (PGRN) secretion, BV-2 cells. The assay is described as follows: PGRN assay: progranulin induction cellular assay (ELISA of secreted mouse PGRN). Format: cell-based. Particulars: Mus musculus, BV-2. In outline:
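Progranulin induction measured in BV-2 cells plated at about 80% confluence the day before, given 1 h to attach, then incubated 16 h. Secreted mouse PGRN quantified by ELISA.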
As to `CNC(=O)c1ccc2c(c1)CCN(C(=O)O[C@@H]1CN3CCC1CC3)[C@H]2c1ccc(F)cc1` [Compound 2100], the EC50 was > 10 µM.

Staying with this assay, now noted: Mus musculus, BV-2, PGRN assay, Table C; secreted mouse PGRN in cell culture medium, ELISA.
`N#Cc1ccc2c(c1)CCN(C(=O)N[C@@H]1CN3CCC1CC3)[C@H]2c1ccc(F)cc1` [Compound 2014] returned an EC50 of 2.32 µM.

Consider `O=C(CO[C@@H]1CN2CCC1CC2)N1CCc2ccccc2[C@@H]1c1ccc(F)cc1` [Compound 2009], for which a half-maximal response (EC50) required 0.811 µM.

`CN1CCC(OC(=O)N2CCc3ccccc3[C@@H]2c2ccc(F)cc2)(C(F)(F)F)CC1` [Compound 2128, 1-methyl-4-(trifluoromethyl)piperidin-4-yl (S)-1-(4-fluorophenyl)-3,4-dihydroisoquinoline-2(1H)-carboxylate] gave a concentration for a half-maximal effect (EC50) of 7.54 µM.

The compound `O=C(OCC12CCN(CC1)CC2)N1CCc2ccccc2[C@H]1c1ccc(OCc2cncnc2)cc1` [Compound 2150] displayed an EC50 of 9.46 µM.

With `O=C(OCC12CCN(CC1)CC2)N1CCc2ccccc2[C@@H]1c1ccc(OCc2cncnc2)cc1` [Compound 2149], the EC50 is > 10 µM.

`CNC(=O)c1ccc2c(c1)CCN(C(=O)NCC13CCN(CC1)CC3)[C@@H]2c1ccc(F)cc1` [Compound 2071] displayed an EC50 of 3.72 µM.

`CN1CCN(C(=O)CC(=O)N2CCc3ccccc3[C@@H]2c2ccc(F)cc2)CC1` [Compound 2189, (S)-1-(1-(4-fluorophenyl)-3,4-dihydroisoquinolin-2(1H)-yl)-3-(4-methylpiperazin-1-yl) propane-1,3-dione] showed an EC50 of 3.32 µM.

With `CNC(=O)c1ccc2c(c1)[C@@H](c1ccc(F)cc1)N(C(=O)OCC13CCN(CC1)CC3)CC2` [Compound 2060], the EC50 was > 10 µM.

Take `COC(=O)c1ccc2c(c1)CCN(C(=O)N[C@@H]1CN3CCC1CC3)[C@@H]2c1ccc(F)cc1` [Compound 2089]: the EC50 was > 10 µM.

In the case of `CN1CCC(COC(=O)N2CCc3ccccc3[C@H]2c2ccc(F)c(F)c2)CC1` (single isomer, unassigned) [Compound 2139, (1-methylpiperidin-4-yl)methyl-1-(3,4-difluorophenyl)-3,4-dihydroisoquinoline-2(1H)-carboxylate], the EC50 is > 10 µM.

Consider `CN1CCC(COC(=O)N2CCc3ccccc3[C@@H]2c2ccc(F)cc2)CC1` [Compound 2173], for which the midpoint of the response, the EC50, lay at 3.22 µM.

As to `CN1CCC2(CCCN2C(=O)N2CCc3ccccc3[C@@H]2c2ccc(F)cc2)CC1` [Compound 2120, (S)-(1-(4-fluorophenyl)-3,4-dihydroisoquinolin-2(1H)-yl)(8-methyl-1,8-diazaspiro[4.5]decan-1-yl)methanone], the EC50 was 2.68 µM.

For `CN1CCS(=O)(=O)[C@@H](CC(=O)N2CCc3ccccc3[C@@H]2c2ccc(F)cc2)C1` (single isomer, unassigned) [Compound 2043], the EC50 was > 10 µM.

`O=C(C[C@H]1CCCNC1)N1CCc2ccccc2[C@@H]1c1ccc(F)cc1` [Compound 2187] had an EC50 of 0.4 µM.

The compound `CN1C2CCC1CC(OC(=O)N1CCc3ccccc3[C@@H]1c1ccc(F)cc1)C2` (some centres unmarked) [Compound 2007] displayed an EC50 of 1.19 µM.

Take `CO[C@H](CC12CCN(CC1)CC2)C(=O)N1CCc2ccccc2[C@@H]1c1ccc(F)cc1` [Compound 2028]: the EC50 was > 10 µM.

Compound `O=C(OCC12CCN(CC1)CC2)N1CCc2ccccc2[C@@H]1c1ccc(F)c(F)c1` [Compound 2110] had an EC50 of 7.82 µM.

Take `CN1CCS(=O)(=O)[C@H](CC(=O)N2CCc3ccccc3[C@@H]2c2ccc(F)cc2)C1` [Compound 2042]: it took 3.2 µM to reach a half-maximal effect (EC50).

With `O=C(N[C@H]1CCN2CCC[C@@H]12)N1CCc2ccccc2[C@@H]1c1ccc(F)cc1` [Compound 2051], the EC50 is > 10 µM.

Consider `CN1CCC(OC(=O)N2CCc3ccccc3[C@@H]2c2ccc(F)cc2)CC1` [Compound 2020], for which the EC50 turned out to be 0.23 µM.

Consider `CNC(=O)c1ccc2c(c1)[C@H](c1ccc(F)cc1)N(C(=O)N[C@@H]1CN3CCC1CC3)CC2` [Compound 2118, (S)-1-(4-fluorophenyl)-N7-methyl-N2-((S)-quinuclidin-3-yl)-3,4-dihydroisoquinoline-2,7(1H)-dicarboxamide], for which the EC50 is > 10 µM.

`CN1C[C@H]2CC[C@@H](C1)[C@H]2OC(=O)N1CCc2ccccc2[C@@H]1c1ccc(F)cc1` [Compound 2008] yielded an EC50 of 0.559 µM.

As to `C#CCOc1ccc2c(c1)CCN(C(=O)OCC13CCN(CC1)CC3)[C@@H]2c1ccc(F)cc1` [Compound 2079], the EC50 is 4.83 µM.

For `COCCOCCOc1ccc(COc2ccc([C@H]3c4ccccc4CCN3C(=O)OCC34CCN(CC3)CC4)cc2)cc1` [Compound 2046], the EC50 is 1.72 µM.

The compound `O=C(NCC12CCN(CC1)C2)N1CCc2ccccc2[C@@H]1c1ccc(F)cc1` [Compound 2193, (S)—N-((1-azabicyclo[2.2.1]heptan-4-yl)methyl)-1-(4-fluorophenyl)-3,4-dihydroisoquinoline-2(1H)-carboxamide] came in with an EC50 of 2.51 µM.

`C#CCOCCN1CCC(OC(=O)N2CCc3ccccc3[C@@H]2c2ccc(F)cc2)CC1` [Compound 2197, 1-(2-(prop-2-yn-1-yloxy)ethyl)piperidin-4-yl (S)-1-(4-fluorophenyl)-3,4-dihydroisoquinoline-2(1H)-carboxylate] yielded an EC50 of 1.06 µM.

Consider `O=C(OCC12CCN(CC1)CC2)N1CCc2ccccc2[C@H]1c1cccc(F)c1F` [Compound 2113], for which a half-maximal effect (EC50) was put at 0.596 µM.

Compound `O=C(C[C@@H]1CCCNC1)N1CCc2ccccc2[C@@H]1c1ccc(F)cc1` [Compound 2188] showed an EC50 of 3.21 µM.

As for `COC(=O)c1ccc2c(c1)[C@H](c1ccc(F)cc1)N(C(=O)NCC13CCN(CC1)CC3)CC2` [Compound 2117, methyl (S)-1-(4-fluorophenyl)-2-((quinuclidin-4-ylmethyl)carbamoyl)-1,2,3,4-tetrahydroisoquinoline-7-carboxylate], the EC50 was > 10 µM.

As to `CN1CC2COC[C@@H](C1)[C@H]2OC(=O)N1CCc2ccccc2[C@@H]1c1ccc(F)cc1` (single isomer, unassigned) [Compound 2106], the EC50 is > 10 µM.

The same assay, now with this note: Mus musculus, BV-2, PGRN assay, Table D; secreted mouse PGRN in cell culture medium, ELISA.
`O=C(NCC1CNC1)N1CCc2ccccc2[C@@H]1c1ccc(F)cc1` [Compound 2257, (S)—N-(azetidin-3-ylmethyl)-1-(4-fluorophenyl)-3,4-dihydroisoquinoline-2(1H)-carboxamide acetate] returned an EC50 of 0.55 µM.

Regarding `CN(C(=O)N1CCc2ccccc2[C@@H]1c1ccc(F)cc1)[C@H]1CNCC1(F)F` [Compound 2297, (S)—N—((S)-4,4-difluoropyrrolidin-3-yl)-1-(4-fluorophenyl)-N-methyl-3,4-dihydroisoquinoline-2(1H)-carboxamide], the EC50 is > 10 µM.

In the case of `O=C(N1CCCNCC1)N1CCc2ccccc2[C@@H]1c1ccc(F)cc1` [Compound 2264, (S)-(1,4-diazepan-1-yl)(1-(4-fluorophenyl)-3,4-dihydroisoquinolin-2(1H)-yl)methanone], the EC50 turned out to be 1.06 µM.

Turning to `O=C(N[C@H]1CNC[C@H]1F)N1CCc2ccccc2[C@@H]1c1ccc(F)cc1` [Compound 2352], the EC50 was determined as 0.125 µM.

For the compound `CN1CC[C@H](O)[C@@H](O)[C@@H]1COC(=O)N1CCc2ccccc2[C@@H]1c1ccc(F)cc1` (single isomer, unassigned) [Compound 2304], the EC50 came out at 2.33 µM.

With `CC1(C)CNC[C@H]1NC(=O)N1CCc2ccccc2[C@@H]1c1ccc(F)cc1` [Compound 2273], the EC50 worked out at 0.319 µM.

In the case of `CC1(C)CNC[C@@H]1OC(=O)N1CCc2ccccc2[C@@H]1c1ccc(F)cc1` [Compound 2291], the EC50 is 0.591 µM.

`O=C(O[C@H]1CNCCOC1)N1CCc2ccccc2[C@@H]1c1ccc(F)cc1` [Compound 2263] displayed an EC50 of 1.28 µM.

Consider `O=C(N[C@@H]1CCNC1)N1CCc2ccccc2[C@@H]1c1ccc(F)cc1` [Compound 2223], for which the response was half-maximal at 1.58 µM (EC50).

`O=C(OC[C@H]1CCN1)N1CCc2ccccc2[C@@H]1c1ccc(F)cc1` [Compound 2240] gave an EC50 of 2.39 µM.

Take `O=C(OCC[C@@H]1CN2CCC1CC2)N1CCc2ccccc2[C@@H]1c1ccc(F)cc1` [Compound 2206, 2-((S)-quinuclidin-3-yl)ethyl (S)-1-(4-fluorophenyl)-3,4-dihydroisoquinoline-2(1H)-carboxylate formate]: the EC50 was determined as 1.99 µM.

`O=C(N[C@H]1CNC[C@@H]1F)N1CCc2ccccc2[C@@H]1c1ccc(F)cc1` [Compound 2351, (S)-1-(4-fluorophenyl)-N-((3S,4S)-4-fluoropyrrolidin-3-yl)-3,4-dihydroisoquinoline-2(1H)-carboxamide]: the EC50 is 0.13 µM.

`CN(C(=O)N1CCc2ccccc2[C@@H]1c1ccc(F)cc1)[C@@H]1CCNC1` [Compound 2253, 1-(4-fluorophenyl)-N-methyl-((R)-pyrrolin-3-yl)-3,4-dihydroisoquinoline-2(1H)-carboxamide] returned an EC50 of 0.11 µM.

`O=C(NC[C@@H]1CCCN1)N1CCc2ccccc2[C@H]1c1ccc(F)cc1` [Compound 2218]: the EC50 came to 3.95 µM.

The compound `O=C(N[C@@H]1CNCCOC1)N1CCc2ccccc2[C@@H]1c1ccc(F)cc1` (single isomer, unassigned) [Compound 2277] displayed an EC50 of 1.06 µM.

Turning to `O=C(N[C@H]1CNCC1(F)F)N1CCc2ccccc2[C@@H]1c1ccc(F)cc1` (stereo in doubt) [Compound 2243, (1 S)—N-(4,4-difluoropyrrolidin-3-yl)-1-(4-fluorophenyl)-3,4-dihydroisoquinoline-2(1H)-carboxamide], the response was half-maximal at 0.36 µM (EC50).

In the case of `O=C(N1CC[C@]2(CNCCO2)C1)N1CCc2ccccc2[C@@H]1c1ccc(F)cc1` (single isomer, unassigned) [Compound 2326], the midpoint of the response, the EC50, lay at 0.189 µM.

Still in this assay, the particulars now being: PGRN assay, Table C; secreted mouse PGRN in cell culture medium, ELISA.
`O=C(OC1[C@@H]2CC3C[C@@H]1CN(C3)C2)N1CCc2ccccc2[C@@H]1c1ccc(F)cc1` (some centres unmarked) [Compound 2098] yielded an EC50 of 0.339 µM.

The same assay, now with this note: mouse BV2 cells.
For `O=C(O[C@H]1CN2CCC1CC2)N1CCc2ccccc2[C@@H]1c1ccccc1` [Solifenacin, reference compound], the secretion of progranulin result is “causes the secretion of progranulin”.
